Experimental data reported in ChEMBL document CHEMBL4825771 (ACS Med Chem Lett, 2021).
pEC50: −log10 of the molar value.

Experiments:
[1] = biological target: 5-hydroxytryptamine receptor 2A (Homo sapiens, UniProt P28223); test: Displacement of [3H]-ketanserin from human 5-HT2A receptor incubated for 90 mins by scintillation counting analysis
[2] = Metabolic stability in human liver microsomes assessed as intrinsic clearance measured after 60 mins by LC-MS/MS analysis; type: ADME, Microsome; details: read-out: CLH
[3] = Metabolic stability in human liver microsomes assessed as half life measured after 60 mins by LC-MS/MS analysis; type: ADME, Microsome

5-hydroxytryptamine receptor 2A, sequence (P28223 whole entry): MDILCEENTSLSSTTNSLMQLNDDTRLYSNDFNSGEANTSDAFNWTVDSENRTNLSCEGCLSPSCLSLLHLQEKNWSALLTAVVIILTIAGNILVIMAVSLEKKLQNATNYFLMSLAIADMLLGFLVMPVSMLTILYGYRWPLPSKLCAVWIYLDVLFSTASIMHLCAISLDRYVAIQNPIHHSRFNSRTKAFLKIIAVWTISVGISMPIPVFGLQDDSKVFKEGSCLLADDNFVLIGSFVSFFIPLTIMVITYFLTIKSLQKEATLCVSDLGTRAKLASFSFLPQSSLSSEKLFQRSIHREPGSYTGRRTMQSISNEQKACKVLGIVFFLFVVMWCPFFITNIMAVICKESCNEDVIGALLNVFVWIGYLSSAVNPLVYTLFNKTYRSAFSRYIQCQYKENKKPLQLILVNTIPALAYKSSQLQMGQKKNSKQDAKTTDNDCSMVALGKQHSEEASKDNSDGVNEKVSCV

Compound: [2H]C([2H])([2H])N(C([2H])([2H])[2H])C([2H])([2H])C([2H])([2H])c1c[nH]c2cccc(OC(=O)CCCCCCCC/C=C\C/C=C\CCCCC)c12
- pEC50 [1]: 6.02
- microsomal CLint [2]: 10.4 µL/min/mg
- half-life at 2 µM [3]: 2.23 h
